Test results published in PMC10728895, “Stapled Phd Peptides Inhibit Doc Toxin Induced Growth Arrest in Salmonella” (ACS Chemical Biology, 2023).
Positions of bridges follow the written chain, without caps; N, C: chain ends. Non-standard residues stand in square brackets, D forms with d. Residues, ends and D or L forms follow the SMILES beside them. S5 = C=CCCC[C@](C)(N)C(=O)O; Nle = CCCC[C@H](N)C(=O)O

Key:
[1] = tested on: DocSTm (phosphorylation of EF-TuSTm); assay: Dot blot EF-Tu phosphorylation assay; format: biochemical, Salmonella Typhimurium; conditions: DocSTm 1 μM, EF-TuSTm 3 μM, peptide 10 μM to 5 nM (3-fold dilutions), 16 h RT, dot blot anti-phosphothreonine; compared at three times the DocSTm concentration; two independent experiments
Protocol: Samples were prepared in assay buffer [50 mM HEPES (pH 7.5), 25 mM (NH4)2SO4, 2 mM TCEP, 2 mM MgCl2, and 1 mM ATP] with a final concentration of recombinant Doc at 1 μM, recombinant EF-Tu at 3 μM, and varying concentrations of synthetic Phd peptides (final concentrations: 10 μM to 5 nM). EF-Tu (3 μM) in assay buffer was used as a negative control (no Doc and Phd peptide), while EF-Tu (3 μM) with Doc (1 μM) in assay buffer was used as a positive control (no Doc inhibitor). The final sample volume was 10 μL. Samples were incubated for 16 h at RT and subsequently spotted on a nitrocellulose membrane. Phosphorylated EF-Tu was detected by immunodecoration using a rabbit monoclonal antiphosphothreonine antibody (Abcam, ab218195) at 1:2000 dilution (1 h at 4 °C), followed by incubation with a goat antirabbit IgG (H + L) HRP conjugate antibody (Advansta) at 1:10,000 dilution (1 h at RT). Chemiluminescence was developed using the HRP Luminata Kit (Merck, WBLUR0100) and captured with an ImageQuant LAS4000 Western blot imaging system (GE HealthCare). Each peptide was tested in two independent experiments.

[2] = tested on: DocSTm toxin; conditions: DocSTm 5 μM, peptide 50 μM; for Average Tm of DocSTm in the presence of peptide: pH 8.0, average ± SD, replicates 3-48 (Table S3)
Protocol: The thermal shift assay was performed using a Mx3005P qPCR System (Agilent) collecting fluorescence data with a temperature ramp of 25 to 95 °C. Samples were prepared in a buffer containing 20 mM K2HPO4 and 50 mM (NH4)2SO4 at pH 8.0, with a final concentration of recombinant Doc protein at 5 μM and Phd peptides at 50 μM. SYPRO Orange dye (Sigma-Aldrich, 5000X stock in DMSO) was used to monitor protein denaturation in a final concentration of 3×. The final sample volume was 20 μL. Each condition was prepared in triplicate in each independent experiment. The melting curves were plotted using GraphPad Prism 9 (GraphPad Software, USA), and the melting temperatures were obtained by fitting the sigmoidal section of the curves to a Boltzmann sigmoid function. For the calculation of thermal shifts ΔTm, the average melting temperature of free DocSTm toxin as determined in the respective peptide measurement cycles was subtracted from the average melting temperature of DocSTm in the presence of the peptide (Table S3).

CCCC[C@H](NC(=O)[C@H](Cc1c[nH]c2ccccc12)NC(C)=O)C(=O)N[C@@H](CCCNC(=N)N)C(=O)N[C@@H](CC(=O)O)C(=O)N[C@@H](CCC(=O)O)C(=O)N[C@@H](Cc1ccccc1)C(=O)N[C@@H](C)C(=O)N[C@@H](C)C(=O)N[C@H](C(=O)N[C@@H](CCCC)C(=O)N[C@@H](CCCNC(=N)N)C(=O)N[C@H](C(=O)N[C@@H](Cc1c[nH]cn1)C(=O)NCC(=O)N[C@@H](CC(N)=O)C(=O)N[C@@H](CCC(=O)O)C(=O)N[C@@H](CC(C)C)C(=O)N[C@@H](CCCNC(=N)N)C(=O)N[C@@H](CCC(=O)O)C(=O)N[C@@H](CC(C)C)C(=O)N[C@@H](C)C(=O)N[C@@H](CC(=O)O)C(=O)N[C@@H](CCCCN)C(=O)O)C(C)C)[C@@H](C)CC [Peptide 16] (Ac-W[Nle]RDEFAAI[Nle]RVHGNELRELADK-OH)
Inhibition of EF-TuSTm phosphorylation by DocSTm (concentration needed for full inhibition) [1]: fully inhibited | Average Tm of DocSTm in the presence of peptide [2]: 65.0 ± 0.4 °C

CCCC[C@H](NC(=O)[C@H](Cc1c[nH]c2ccccc12)NC(C)=O)C(=O)N[C@@H](CCCNC(=N)N)C(=O)N[C@@]1(C)CCCC=CCCC[C@@](C)(C(=O)N[C@H](C(=O)N[C@@H](CCCC)C(=O)N[C@@H](CCCNC(=N)N)C(=O)N[C@H](C(=O)N[C@@H](Cc2c[nH]cn2)C(=O)NCC(=O)N[C@@H](CC(N)=O)C(=O)N[C@@H](CCC(=O)O)C(=O)N[C@@H](CC(C)C)C(=O)N[C@@H](CCCNC(=N)N)C(=O)N[C@@H](CCC(=O)O)C(=O)N[C@@H](CC(C)C)C(=O)N[C@@H](C)C(=O)N[C@@H](CC(=O)O)C(=O)N[C@@H](CCCCN)C(=O)O)C(C)C)[C@@H](C)CC)NC(=O)[C@H](C)NC(=O)[C@H](Cc2ccccc2)NC(=O)[C@H](CCC(=O)O)NC1=O [Peptide 17] (Ac-W[Nle]R[S5]EFA[S5]I[Nle]RVHGNELRELADK-OH; staple 4-8)
Inhibition of EF-TuSTm phosphorylation by DocSTm (concentration needed for full inhibition) [1]: required a higher concentration to achieve full inhibition | Average Tm of DocSTm in the presence of peptide [2]: 61.3 ± 0.3 °C

CCCC[C@H](NC(=O)[C@H](Cc1c[nH]c2ccccc12)NC(C)=O)C(=O)N[C@@H](CC(N)=O)C(=O)N[C@@]1(C)CCCC=CCCC[C@@](C)(C(=O)N[C@H](C(=O)N[C@@H](CCCC)C(=O)N[C@@H](C)C(=O)N[C@H](C(=O)N[C@@H](Cc2c[nH]cn2)C(=O)NCC(=O)N[C@@H](CCCNC(=N)N)C(=O)N[C@@H](CCC(N)=O)C(=O)N[C@@H](CC(C)C)C(=O)N[C@@H](CCCNC(=N)N)C(=O)N[C@@H](CCCNC(=N)N)C(=O)N[C@@H](CC(C)C)C(=O)N[C@@H](C)C(=O)N[C@@H](CCCNC(=N)N)C(=O)N[C@@H](CCCCN)C(=O)O)C(C)C)[C@@H](C)CC)NC(=O)[C@H](C)NC(=O)[C@H](Cc2ccccc2)NC(=O)[C@H](CCC(=O)O)NC1=O [Peptide 35] (Ac-W[Nle]N[S5]EFA[S5]I[Nle]AVHGRQLRRLARK-OH; staple 4-8)
Average Tm of DocSTm in the presence of peptide [2]: 59.9 ± 0.4 °C

CCCC[C@H](NC(=O)[C@H](Cc1c[nH]c2ccccc12)NC(C)=O)C(=O)N[C@@H](CC(N)=O)C(=O)N[C@@H](CC(N)=O)C(=O)N[C@@H](CCC(=O)O)C(=O)N[C@@H](Cc1ccccc1)C(=O)N[C@@H](C)C(=O)N[C@@]1(C)CCCC=CCCC[C@@](C)(C(=O)N[C@@H](Cc2c[nH]cn2)C(=O)NCC(=O)N[C@@H](CCCNC(=N)N)C(=O)N[C@@H](CCC(N)=O)C(=O)N[C@@H](CC(C)C)C(=O)N[C@@H](CCCNC(=N)N)C(=O)N[C@@H](CCCNC(=N)N)C(=O)N[C@@H](CC(C)C)C(=O)N[C@@H](C)C(=O)N[C@@H](CCCNC(=N)N)C(=O)N[C@@H](CCCCN)C(=O)O)NC(=O)[C@H](C)NC(=O)[C@H](CCCC)NC(=O)[C@H]([C@@H](C)CC)NC1=O [Peptide 37] (Ac-W[Nle]NNEFA[S5]I[Nle]A[S5]HGRQLRRLARK-OH; staple 8-12)
ΔTm (thermal shift) of DocSTm in the presence of peptide ([2]; SYPRO Orange 3×, 20 mM K2HPO4, 50 mM (NH4)2SO4, pH 8.0, average Tm with peptide minus average Tm of free DocSTm, mean ± SD): reduced stabilization | Average Tm of DocSTm in the presence of peptide [2]: 55.3 ± 1.5 °C
